Converted amounts (≈) assume the structure as drawn.

One may read the MIC as the least concentration at which growth counts as inhibited.

This assay concerns Malassezia furfur (CBS 7982). The assay can be described thus: In vitro evaluation of antifungal potency (MIC). As to conditions: for MIC value, Malassezia furfur / MIC: M. furfur CBS 7982, mDixon medium, 31° C., approximately 72 hours, absorbance at 600 nm; for MIC: Malassezia furfur, CBS7982. It counts as cell-based. As for the experimental part:
Malassezia furfur (CBS 7982) is grown for approximately 24 hours in a 250 ml vent cap polycarbonate Erlenmeyer flask containing approximately 100 ml of mDixon medium and 5 ml of a fully grown M. furfur culture prepared using the same conditions as described. The cells are diluted by mixing 2.5 ml of the 24 hour-old culture per 50 ml of mDixon medium. A Versette robot (ThermoFisher Scientific) is used to transfer 292.5 μl of the dilute cells into each well of a Beckman 267007 polypropylene round bottom deep well plate. All compounds are sourced from Sigma Aldrich (St. Louis, Mo.) and prepared as 10 mg/ml in DMSO. A semipermeable aeraseal membrane is applied to the plate which is then be covered with water-soaked cotton batting. The samples are be shaken at 31° C. on a Heidolph Titramax 100 shaker at 1500 rpm for approximately 72 hours. The plates are shaken at 1250 rpm on an Eppendorf MixMate shaker to disperse the cells before transferring 200 μl to a Corning 3596 polystyrene plate. The samples are shaken again at 950 rpm on a MixMate shaker before the absorbance at 600 nm is read using a Molecular Devices SpectraMax plate reader.

For `CNC(=O)/C(=N/OC)c1ccccc1COc1cc(C)ccc1C` [Dimoxystrobin, dimoxystrobin], the “MIC value, Malassezia furfur” value was determined as 7.81 ppm. In turn, `CON=C(C(=O)OC)c1ccccc1CON=C(C)c1cccc(C(F)(F)F)c1` [Trifloxystrobin, trifloxystrobin] gave an MIC of 15.6 µg/mL (≈ 38.3 µM). Turning to `CNC(=O)/C(=N/OC)c1ccccc1CO/N=C(C)/C(=N/OC)C(/C)=N/OC` [Orysastrobin, orysastrobin], the “MIC value, Malassezia furfur” value was 31.25 ppm. Besides, the “times less potent than azoxystrobin (MIC)” value (Malassezia furfur MIC ratio) was determined as 64 times. `COC(=O)N(OC)c1ccccc1COc1ccn(-c2ccc(Cl)cc2)n1` [Pyraclastrobin, pyraclostrobin]: it took 1.95 µg/mL (≈ 5.03 µM) to inhibit growth (MIC).

zinc pyrithione: the “MIC value, Malassezia furfur” value is recorded as 3.13 ppm.

Molecule `CO/N=C(/C1=NOCCO1)c1ccccc1Oc1ncnc(Oc2ccccc2Cl)c1F` [Fluoxastrobin, fluoxastrobin] gave a minimal inhibitory concentration (MIC) of 3.91 µg/mL (≈ 8.52 µM). `CO/N=C(/C(=O)OC)c1ccccc1COc1ccccc1C` [Kresoxim-methyl, kresoxim methyl]: the MIC is 15.6 µg/mL (≈ 49.9 µM).

These data come from patent publication US20220192955A1, “AZOXYSTROBIN EFFICACY IN SCALP HEALTH” (The Procter & Gamble Company, priority 2020, published 2022).
